This is an account of results in patent US20090017139A1, “Iodine therapy dosing for treating medical conditions” (priority 2007, published 2009).

A short description of data set [1]: Example 5: daily feed consumption and weight during 2 months of daily dosing. The data set is classed as in vivo, Sprague-Dawley rats. The settings on record: 2 months daily dosing, .06 to 2 mg I2/kg/day. The source says:
(§1) A total of 24 nulliparous and nonpregnant female Sprague-Dawley rats were received from Charles River Laboratories, Kingston, N.Y. The animals were 10 weeks of age and were examined for signs of disease or injury upon receipt. The animals were housed in stainless steel cages and fed LabDiet™ Certified Rodent Chow 5002 (PMI Feeds, Inc., a subsidiary of Purina Mills, Inc.) ad libitum and were provided fresh filtered tap water ad libitum. Environmental controls were set to maintain a temperature of 18 to 26° C. and a relative humidity of 30 to 70%. A 12-hour light/dark cycle was employed and the room underwent a minimum of ten fresh air changes/hour.
(§2) The animals were allowed to acclimate to laboratory conditions for 2 weeks. No abnormal findings excluding animals from study were noted. The animals were released from conditioning following an examination. Each animal was identified with a unique number that was indicated by ear punch. Cage labels, color-coded by group, identified each cage. The animals were maintained at laboratory conditions for an additional 2 weeks and then randomized into treatment groups by weight.
Tablets of IoGen, a registered trademark of Symbollon Pharmaceuticals Inc. of Framingham Mass. USA were dissolved in distilled water. […]

Another data set has as its system estrogen receptor. The experiment in a line: Example 5: immunocytochemical detection of estrogen receptor in vaginal smears after 2 months of daily I2. The data set is classed as in vivo, Sprague-Dawley rats. The settings on record: for Immunocytochemical Detection of Estrogen Receptor, Scores (mean ± SD), End: after 2 months daily dosing; for Immunocytochemical Detection of Estrogen Receptor, Scores (mean ± SD), End / Immunocytochemical Detection of Estrogen Receptor, Scores (mean ± SD), Baseline: scale +1 to +3, dissolved IoGen tablets; for Immunocytochemical Detection of Estrogen Receptor, Scores (mean ± SD), Baseline: before dosing.
Excerpt: as §1, §2
Tablets of IoGen, a registered trademark of Symbollon Pharmaceuticals Inc. of Framingham Mass. USA were dissolved in distilled water. IoGen tablets are compositions of iodide and iodate in a pharmaceutically acceptable carrier which will form molecular iodine “I2” once in contact with the gastric fluid in the stomach via a diffusion controlled oxidation reduction reaction as taught in U.S. Pat. No. 5,885,592 the disclosure of which is incorporated herein by reference. For this example the IoGen tablets weighted 400 mg and contained the equivalent of 6 mg of I2 in the form of iodide and iodate. The dissolved IoGen tables were used to provide defined daily doses of I2 to rats according to Table 1 below.
After randomization vaginal smears were taken from rats using a cotton swab; the swab was inserted into the vagina and rotated 360° in a clockwise direction, then the swab was smeared onto a glass slide and the smear was fixed in 3.7% formaldehyde with phosphate buffered saline (PBS) for 15 minutes. The slides were washed in PBS for 5 minutes and subsequently immersed in cold methanol and acetone (both at −10° C.) for 3 minutes. After a final rinse in cold PBS for 5 minutes the slides were stored at −20° C. in a solution of PBS-glycerol.
Rats were then dosed daily for the next 2 months according to the schedule in Table 1. […] After 2 months of daily dosing vaginal swabs were taken again and slides were prepared as on day 1 of the dosing regimen.
Immunocytochemical (IC) detection of estrogen receptor (hereafter “ER”) status was accomplished using mouse monoclonal antibody 6F11 from Vector Laboratories (Burlingame, Calif.). A gentle stream of 10 mM citrate buffer (pH 6.0) was passed over each slide for 45 minutes and then a 1/25 dilution of the antibody was incubated with slides at room temperature for 30 minutes. Slides were washed and the Vectastain ABC Kit for Mouse IgG (Vector Laboratories; Burlingame, Calif.) was used to visualize ER. The chromophone 3,3′ diaminobenzidine and peroxidase were used to stain areas of the slides that contained ER. The intensity of staining was scored semi quantitatively on a scale of +1 to +3. Each dosing group contained 6 animals.

In data set [2] the test system is patient with follicular cyst of the ovary. The experiment in a line: Example 4: I2 therapy of a patient with ovarian follicular cysts. The format is in vivo, human. Here is the method:
The post surgical diagnosis was ruptured follicular cyst of the right ovary. After the surgical procedure the patient continued to experience lower right quadrant abdominal pain. […] The patient was started on I2 therapy at a dose of 6.0 mg/d. The patient was seen again 3 months later (December 3 to March 16). After three months of I2 therapy the patient was free of pain which their […] regarded as unique.
The patient subsequently stopped I2 therapy and approximately 3 years later symptoms of abdominal and breast pain were present. The patient was started again on daily I2 therapy at a dose of 6.0 mg/d. An ultrasound was performed and small follicular cysts in each ovary was noted. […] The patient was continued on daily iodine therapy at a concentration of 3.0 mg/d.

The subject of the next data set is women with mastalgia. The settings on record: cited from earlier work; for patients reporting headaches: 6 month study.
For another data set, the system named is breast cancer cell lines. The settings on record: cited from earlier work.

Where two headings read alike, the source gives them in different places.

For `II` [I2, molecular iodine], the “daily feed consumption or weight, placebo versus treated groups” value in data set [1] was “no statistically significant differences”. Also, the “Immunocytochemical Detection of Estrogen Receptor, Scores (mean ± SD), End” value in the data set on estrogen receptor (Group 2, .06 mg I2/kg/day) is listed as 1.167 ± 0.752; with estrogen receptor (Group 3, 0.2 mg I2/kg/day), 1.167 ± 0.408; in the data set with estrogen receptor (Group 4, 2 mg I2/kg/day), 0.833 ± 0.408. The “Immunocytochemical Detection of Estrogen Receptor, Scores (mean ± SD), Baseline” value is recorded as 2.000 ± 0.632 in the data set with estrogen receptor (Group 2, .06 mg I2/kg/day); 2.167 ± 0.753 in the data set on estrogen receptor (Group 3, 0.2 mg I2/kg/day); 2.333 ± 0.516 with estrogen receptor (Group 4, 2 mg I2/kg/day). Also, the “effect of daily treatment on ER in the endometrium” value in the data set with estrogen receptor (trend across the 3 dosing groups p<0.001) is on record as “down regulation of ER”. The “change from baseline to end in ER score, placebo versus all rats that received I2” value with estrogen receptor (unpaired t-test, p=0.015) is reported as “statistically significant difference”. In addition, in data set [2] (3.0 mg/d, seen 9 and 18 months later), the “symptoms on continued therapy” value was “remained asymptomatic”. In data set [2] (6.0 mg/d, after three months of therapy), the abdominal pain entry is “free of pain”. In data set [2] (6.0 mg/d, approximately 4 months later), the “ultrasound of the ovaries” value is given as “ovaries appeared normal”. Moreover, the symptoms of pain result in data set [2] (6.0 mg/d, within a month of reinitiating therapy) is reported as “no longer present”. The patients reporting headaches is 6.3% in the data set with women with mastalgia (1.5 mg/day group), 26% with women with mastalgia (3.0 mg/day group) and 12% with women with mastalgia (6.0 mg/day group). For the same molecule, in the data set with women with mastalgia (any treatment group), the “change in five thyroid function tests (T3, T4, T uptake, TSH, FT3)” value is given as “No statistically significant change”. Further, the “effect on estrogen receptor concentration” value in the data set on breast cancer cell lines is given as “reducing the concentration of estrogen receptor”.
